Starred links: 1 amine or outer side, 2 acyl side, 3 side chain; linkers in the order of their positions; H or OH if unused. Positions of bridges follow the written chain, without caps; N, C: chain ends. Non-standard residues stand in square brackets, D forms with d. Residues, ends and D or L forms follow the SMILES beside them. *: point of attachment. X6 = O=C(CCC(=O)[*:3])N[C@@H](CS[*:2])C(=O)[*:1]; Trp(7-Me) = Cc1cccc2c(C[C@H](N)C(=O)O)c[nH]c12; X1 = O=C(CCCCN[*:3])N[C@@H](CS[*:2])C(=O)[*:1]; αMeLys(Me2) = CN(C)CCCC[C@](C)(N)C(=O)O; 2Nal = N[C@@H](Cc1ccc2ccccc2c1)C(=O)O; Palmitoyl = CCCCCCCCCCCCCCCC(=O)*; 3Pal = N[C@@H](Cc1cccnc1)C(=O)O; αMeL = CC(C)C[C@](C)(N)C(=O)O; Suc = O=C(CCC(=O)[*:2])[*:1]; αMeK = C[C@](N)(CCCCN)C(=O)O; Thp = NC1(C(=O)O)CCOCC1; Me2NCH2CH2 = CN(C)CC*; Aib = CC(C)(N)C(=O)O; Ava = NCCCCC(=O)O; Sar = CNCC(=O)O

The subject of series [1] is IL-23 induced STAT3 signaling in HEK-Blue™ IL-23 cells. As to the kind of experiment: IL-23 induced STAT3 signaling in HEK-Blue IL-23 cells (SEAP reporter). Format: cell-based. As to conditions: human IL23 0.25 ng/ml, read-out: pSTAT3. The gist of the method: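 Secreted SEAP, read at OD 620-655 nm after 45 min QUANTI-Blue development, reports STAT3 activation. Beforehand, cells were exposed to peptide dilutions for 60 min at 37 °C and then to 0.25 ng/ml final human IL-23 overnight, at 10,000 cells/well.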

The subject of a further series is Pancreatin. Description: Protease stability in simulated intestinal fluid (Pancreatin-SIF, FaSSIF). Format: in vitro ADME. To be noted: 1 μM peptide, 37° C.; for remaining at 1 h, 1 µM: 60 min, read-out: FaSSIF 60 (min), remaining percent of peptide; for remaining at 2 h, 1 µM: 120 min, read-out: FaSSIF 120 (min), remaining percent of peptide; for remaining at 4 h, 1 µM: 240 min, read-out: FaSSIF 240 (min), remaining percent of peptide. An outline of the steps:
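LC-MS/MS peak areas at 0, 60, 120 and 240 min, normalised to time 0 as 100%, give percent remaining. Reactions used 1 μM final peptide at 37° C in pancreatin-SIF (1 mg pancreatin in 10 mL SIF concentrate) and were stopped with ethanol containing 0.1% HCOOH.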

In series [2] the target is T1, human interleukin-23 receptor (recombinant human IL-23R-Fc chimera) (Homo sapiens, UniProt Q5VWK5).
T1 construct: Fc (IgG Fc fusion)
Description: Human ELISA IL23/IL23R (assay for specific human IL23R antagonists). Format: binding. As to conditions: Table 10; read-out: Human ELISA IL23/IL23R IC50. An outline of the steps:
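Competition format: peptide dilutions compete for IL23R-Fc chimera (0.1 μg/ml final, 60 min, room temperature) binding to immobilized human IL23 coated at […] overnight at 4 °C. Read-out is fluorogenic HRP signal from goat anti-hu-IgG1 detecting captured receptor.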

For the next series, the system named is T2, Pepsin.
T2 construct: purchased Merck Millipore
Description: Protease stability in simulated gastric fluid (Pepsin-SGF, FaSSGF). Format: in vitro ADME. To be noted: simulated gastric fluid with pepsin (Pepsin-SGF), 60 min, 1 μM peptide, 37° C., read-out: FaSSGF 60 (min), remaining percent of peptide. An outline of the steps: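 LCMS/MS peak areas, normalised to the time-0 sample as 100%, give percent remaining. Conditions: 37° C incubation of 1 μM final peptide in simulated gastric fluid with pepsin; ethanol/0.1% HCOOH quench at 0, 60, 120, 240 min.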

Consider `CC[C@H](C)[C@H](NC(=O)[C@H](CC(N)=O)NC(=O)[C@H](CC(N)=O)NC(=O)[C@@H]1CCC(=O)NCCCCC(=O)N[C@H]2CSSC[C@H](NC(=O)[C@H](CCCCNC(C)=O)NC(=O)[C@H](Cc3c[nH]c4ccccc34)NC(=O)[C@H]([C@@H](C)O)NC(=O)[C@H](CC(N)=O)NC2=O)C(=O)N[C@@H](Cc2ccc(OCCN(C)C)cc2)C(=O)N[C@@H](Cc2ccc3ccccc3c2)C(=O)NC(C)(C)C(=O)N1)C(N)=O` [compound 38] ([Ava]CNTWK(Ac)CY(Me2NCH2CH2)[2Nal][Aib]ENNI-NH2; disulfide 2-7; lactam N-11), for which the IC50 in series [1] amounted to 11.9 nM. Also, in the series on Pancreatin, the share remaining at 1 h, 1 µM was 100%; the amount remaining at 2 h, 1 µM was 96%; the fraction remaining at 4 h, 1 µM was 84%. The IC50 in series [2] stood at 0.36 nM. Further, the amount remaining at 1 h, 1 µM in the series on Pepsin is 86%.
In the case of `CC(=O)NCCCC[C@@H]1NC(=O)[C@H](Cc2c[nH]c3c(C)cccc23)NC(=O)[C@@H](NC(C)=O)CCCCNC(=O)[C@@H]2CSSC[C@H](NC1=O)C(=O)N[C@@H](Cc1ccc(OCCN(C)C)cc1)C(=O)N[C@@H](Cc1ccc3ccccc3c1)C(=O)N[C@@](C)(CC(C)C)C(=O)N[C@H](C(=O)N[C@@H](CC(N)=O)C(=O)N[C@@H](Cc1cccnc1)C(=O)N(C)CC(N)=O)CCCCNC(=O)CCC(=O)N2` [compound 106] (Ac-K[Trp(7-Me)]K(Ac)CY(Me2NCH2CH2)[2Nal][αMeL]KN[3Pal][Sar]-NH2; linker 1-4-8 via X6), the IC50 in series [1] turned out to be 0.13 nM. For the same compound, in the series with Pancreatin, the fraction remaining at 1 h, 1 µM is 76%; the fraction remaining at 2 h, 1 µM was 76%; the amount remaining at 4 h, 1 µM is 74%. In addition, in series [2], the IC50 was 0.65 nM. Further, the share remaining at 1 h, 1 µM in the series with Pepsin was 90%.
Take `CCCCCCCCCCCCCCCC(=O)NCCCC[C@]1(C)NC(=O)[C@H](Cc2ccc3ccccc3c2)NC(=O)[C@H](Cc2ccc(OCCN(C)C)cc2)NC(=O)[C@@H]2CSSC[C@H](NC(=O)CCCCNC(=O)CC[C@@H](C(=O)N[C@@H](CC(N)=O)C(=O)N[C@@H](Cc3cccnc3)C(=O)N(C)CC(N)=O)NC1=O)C(=O)NCCCC[C@H](NC(C)=O)C(=O)N[C@@H](Cc1c[nH]c3c(C)cccc13)C(=O)N[C@@H](CCCCNC(C)=O)C(=O)N2` [compound 67] (Ac-K[Trp(7-Me)]K(Ac)CY(Me2NCH2CH2)[2Nal][αMeK](Palmitoyl)EN[3Pal][Sar]-NH2; linker 1-4-8 via X1): the IC50 in series [1] is 22.6 nM; in series [2], 2.27 nM. For the same compound, the share remaining at 1 h, 1 µM was 99% with Pancreatin and 102% in the series on Pepsin. Also, the fraction remaining at 2 h, 1 µM with Pancreatin is 98%. Further, the amount remaining at 4 h, 1 µM in the series with Pancreatin is 98%.
Take `CC(=O)NCCCC[C@@H]1NC(=O)[C@H](Cc2c[nH]c3c(C)cccc23)NC(=O)[C@H]([C@@H](C)O)NC(=O)[C@H](CC(N)=O)NC(=O)[C@@H]2CSSC[C@H](NC1=O)C(=O)N[C@@H](Cc1ccc(OCCN(C)C)cc1)C(=O)N[C@@H](Cc1ccc3ccccc3c1)C(=O)N[C@@](C)(CCCCN(C)C)C(=O)N[C@H](C(=O)N[C@@H](CC(N)=O)C(=O)N[C@H](CC(C)C)C(N)=O)CCC(=O)NCCCCC(=O)N2` [compound 54] ([Ava]CNT[Trp(7-Me)]K(Ac)CY(Me2NCH2CH2)[2Nal][αMeLys(Me2)]EN[dL]-NH2; disulfide 2-7; lactam N-11): the figures for the IC50 in series [1] and in series [2] were 2.59 nM and 0.51 nM, respectively. Also, the amount remaining at 1 h, 1 µM is 100% with Pancreatin and 91% with Pepsin. For the same compound, the fraction remaining at 2 h, 1 µM in the series with Pancreatin is 100%. The amount remaining at 4 h, 1 µM in the series with Pancreatin is 90%.
For the compound `CC(=O)NCCCC[C@@H]1NC(=O)[C@H](Cc2c[nH]c3c(C)cccc23)NC(=O)[C@H]([C@@H](C)O)NC(=O)[C@H](CC(N)=O)NC(=O)[C@@H]2CSSC[C@H](NC1=O)C(=O)N[C@@H](Cc1ccc(OCCN(C)C)cc1)C(=O)N[C@@H](Cc1ccc3ccccc3c1)C(=O)NC1(CCOCC1)C(=O)N[C@H](C(=O)N[C@@H](CC(N)=O)C(=O)N[C@@H](Cc1cccnc1)C(=O)N(C)CC(N)=O)CCCCNC(=O)CCC(=O)N2` [compound 102] (CNT[Trp(7-Me)]K(Ac)CY(Me2NCH2CH2)[2Nal][Thp]KN[3Pal][Sar]-NH2; disulfide 1-6; linker N-10 via Suc), the IC50 in series [1] came out at 0.09 nM; in series [2], 0.3 nM. The share remaining at 1 h, 1 µM is 82% with Pancreatin and 97% with Pepsin. For the same compound, in the series with Pancreatin, the share remaining at 2 h, 1 µM is 77%. Further, the share remaining at 4 h, 1 µM with Pancreatin was 74%.
Regarding `Cc1cccc2c(C[C@@H]3NC(=O)[C@H]([C@@H](C)O)NC(=O)[C@H](CC(N)=O)NC(=O)[C@@H]4CSSC[C@H](NC(=O)[C@H](CCC(N)=O)NC3=O)C(=O)N[C@@H](Cc3ccc(OCCN(C)C)cc3)C(=O)N[C@@H](Cc3ccc5ccccc5c3)C(=O)NC(C)(C)C(=O)N[C@H](C(=O)N[C@@H](CC(N)=O)C(=O)N[C@@H](Cc3cccnc3)C(=O)N(C)CC(N)=O)CCC(=O)NCCCCC(=O)N4)c[nH]c12` [compound 62] ([Ava]CNT[Trp(7-Me)]QCY(Me2NCH2CH2)[2Nal][Aib]EN[3Pal][Sar]-NH2; disulfide 2-7; lactam N-11), the IC50 in series [1] was determined as 0.2 nM; in series [2] it was 0.35 nM. For the same compound, the amount remaining at 1 h, 1 µM is 95% with Pancreatin and 100% in the series on Pepsin. Also, in the series on Pancreatin, the fraction remaining at 2 h, 1 µM is 87%. Further, the fraction remaining at 4 h, 1 µM in the series with Pancreatin is 84%.
Consider `CC(=O)NCCCC[C@@H]1NC(=O)[C@H](Cc2c[nH]c3c(C)cccc23)NC(=O)[C@H]([C@@H](C)O)NC(=O)[C@H](CC(N)=O)NC(=O)[C@@H]2CSSC[C@H](NC1=O)C(=O)N[C@@H](Cc1ccc(OCCN(C)C)cc1)C(=O)N[C@@H](Cc1ccc3ccccc3c1)C(=O)NC(C)(C)C(=O)N[C@H](C(=O)N[C@@H](CC(N)=O)C(=O)N[C@@H](Cc1cccnc1)C(=O)N(C)CC(N)=O)CCC(=O)NCCCCC(=O)N2` [compound 64] ([Ava]CNT[Trp(7-Me)]K(Ac)CY(Me2NCH2CH2)[2Nal][Aib]EN[3Pal][Sar]-NH2; disulfide 2-7; lactam N-11), for which the IC50 turned out to be 0.22 nM in series [1] and 0.27 nM in series [2]. Moreover, the amount remaining at 1 h, 1 µM in the series with Pancreatin is 96%; in the series on Pepsin it was 91%. Also, the fraction remaining at 2 h, 1 µM with Pancreatin is 92%. In the series on Pancreatin, the amount remaining at 4 h, 1 µM was 92%.
With `CC(=O)N[C@H]1CCCCNC(=O)[C@@H]2CSSC[C@H](NC(=O)[C@H](CCC(N)=O)NC(=O)[C@H](Cc3c[nH]c4ccccc34)NC1=O)C(=O)N[C@@H](Cc1ccc(OCCN(C)C)cc1)C(=O)N[C@@H](Cc1ccc3ccccc3c1)C(=O)NC(C)(C)C(=O)N[C@H](C(=O)N[C@@H](CC(N)=O)C(=O)NCC(N)=O)CCC(=O)NCCCCC(=O)N2` [compound 29] (Ac-KWQCY(Me2NCH2CH2)[2Nal][Aib]ENG-NH2; linker 1-4-8 via X1), the IC50 in series [1] worked out at 8.16 nM; in series [2], 0.45 nM. Further, the amount remaining at 1 h, 1 µM in the series with Pancreatin is 73%; with Pepsin it was 70%. In addition, the share remaining at 2 h, 1 µM in the series with Pancreatin was 58%. Further, the fraction remaining at 4 h, 1 µM with Pancreatin was 47%.
Consider `Cc1cccc2c(C[C@@H]3NC(=O)[C@H]([C@@H](C)O)NC(=O)[C@H](CC(N)=O)NC(=O)[C@@H]4CSSC[C@H](NC(=O)[C@H](CC(C)C)NC3=O)C(=O)N[C@@H](Cc3ccc(OCCN(C)C)cc3)C(=O)N[C@@H](Cc3ccc5ccccc5c3)C(=O)N[C@@](C)(CCCCN(C)C)C(=O)N[C@H](C(=O)N[C@@H](C)C(=O)N[C@@H](Cc3cccnc3)C(=O)N(C)CC(N)=O)CCCCNC(=O)CCC(=O)N4)c[nH]c12` [compound 155] (CNT[Trp(7-Me)]LCY(Me2NCH2CH2)[2Nal][αMeLys(Me2)]KA[3Pal][Sar]-NH2; disulfide 1-6; linker N-10 via Suc), for which the IC50 in series [1] is 0.1 nM; in series [2], 0.7 nM. For the same compound, the share remaining at 1 h, 1 µM in the series on Pancreatin and in the series with Pepsin was 98% throughout. The fraction remaining at 2 h, 1 µM in the series with Pancreatin was 98%. Besides, in the series with Pancreatin, the fraction remaining at 4 h, 1 µM is 98%.
For `CC(=O)NCCCC[C@@H]1NC(=O)[C@H](Cc2c[nH]c3c(C)cccc23)NC(=O)[C@@H](NC(C)=O)CCCCNC(=O)[C@@H]2CSSC[C@H](NC1=O)C(=O)N[C@@H](Cc1ccc(OCCN(C)C)cc1)C(=O)N[C@@H](Cc1ccc3ccccc3c1)C(=O)NC(C)(C)C(=O)N[C@H](C(=O)N[C@@H](CC(N)=O)C(=O)N[C@@H](Cc1cccnc1)C(=O)N(C)CC(N)=O)CCCCNC(=O)CCC(=O)N2` [compound 104] (Ac-K[Trp(7-Me)]K(Ac)CY(Me2NCH2CH2)[2Nal][Aib]KN[3Pal][Sar]-NH2; linker 1-4-8 via X6), in series [1], the IC50 is 0.1 nM. In addition, in the series on Pancreatin, the amount remaining at 1 h, 1 µM was 80%; the amount remaining at 2 h, 1 µM was 80%; the amount remaining at 4 h, 1 µM is 76%. The IC50 in series [2] worked out at 0.64 nM. Further, the share remaining at 1 h, 1 µM with Pepsin is 100%.

Values taken from US20260258084A1, “New Peptides as Selective IL-23 Receptor Antagonists” (Sanofi, priority 2022, published 2026).
